Patent US4956343A, “Control of insects by Roseotoxin B” (priority 1988, dated 1990)
Square brackets hold non-standard residues; d marks the D form. Peptide text beside a SMILES is read from it. dLac(3-vinyl) = C=CC[C@@H](O)C(=O)O; dHica = CC(C)C[C@@H](O)C(=O)O; NMeV = CN[C@H](C(=O)O)C(C)C; NMeA = CN[C@@H](C)C(=O)O; βAla = NCCC(=O)O

Key:
mice [1] = details: intraperitoneal injection; cited from earlier work
silk worm larvae = details: cited from earlier work
mice [2] = assay: Toxicity to mice by intraperitoneal injection; details: ratio of lethal doses
Heliothis zea = assay: Insecticidal activity, diet incorporation, neonate corn earworm larvae; format: in vivo; details: 2.5 ppm in diet; for Mortality: neonate larvae fed 1 week; for Wt. reductions: survivors after 1 week
Protocol: (§1) Insects. Neonate larvae of Heliothis zea and Spodoptera frugiperda were used for all assays. They were obtained from laboratory colonies reared on pinto bean-based diet at 27°±1° C., 40±10% relative humidity, and a 14:10 light:dark photoperiod.
(§2) The diet used to rear the insects was based on a standard pinto bean diet for many species of lepidoptera and contained the following ingredients: 120 g dried pinto beans, 43 g wheat germ, 28 g brewer's yeast, 8 g Vanderzant's vitamin mix, 2.8 g ascorbic acid, 1.75 g methyl paraben, 0.9 g sorbic acid, 12 g agar, 1 ml formaldehyde (38%), 1.5 ml of propionic-phosphoric acid solution (42% propionic acid, 4.2% phosphoric acid), and 550 ml water. All dry diet ingredients (except for the pinto beans) were purchased from U.S. Biochemicals Corp. Before use, the beans were soaked in water until saturated. The agar was added to 250 ml of water and brought to a boil. The other ingredients were blended in a Waring blender until uniformly mixed. The hot agar was added, and blending continued until all ingredients were uniformly mixed.
(§3) The pinto bean-based diet was prepared and added in 5-ml quantities to test tubes. The test tubes were held at 60° C. until chemicals were incorporated to prevent solidification of the diet. The roseotoxin B was added in 125 μl of acetone to the liquid diet upon removal from the water bath to give a final concentration of 250-2.5 ppm. The chemical was incorporated into the diets by blending vigorously with a vortex mixer for 20 sec. Preliminary observations with colored solutions of both water and acetone indicated uniform incorporation by this method. The diets were dispensed into culture plates, and allowed to cool to room temperature. To remove the potentially toxic acetone, the diets were placed in a fume hood for ca. 20 min until slight darkening occurred. The diets were cut into approximately equal sections, and each section was placed into a well of a 24-well immunoassay plate. A single neonate H. zea or S. frugiperda larvae was added to each well. To prevent desiccation of the diet, the plate was covered by a sheet of parafilm, a sheet of cardboard, and the plastic cover. The cover was secured by two rubber bands, and groups of plates were placed in two polyethylene bags held closely by rubber bands. The plates were held under the same conditions used to rear the insects. Mortality was checked at 2, 4, and 7 days, and the surviving larvae were weighed after 7 days. Each chemical set was tested on a total of 40 larvae.
(§4) Mortality values are based on two replicates of ca. 20 insects each, whil
(§5) weight reductions are based on survivors of mortality tests. All chemical
(§6) were incorporated into insect diets, and fed to neonate larvae for 1 week

Spodoptera frugiperda = assay: Insecticidal activity, diet incorporation, neonate fall armyworm larvae; format: in vivo; details: 2.5 ppm in diet; for Mortality: neonate larvae fed 1 week; for Wt. reductions: survivors after 1 week
Protocol: as §1, §2, §3, §4, §5, §6

Structure (SMILES) | Dose that killed all test mice (mice [1]) [mg/kg] | Dose causing death by injection (silk worm larvae) [µg/g] | Mammalian toxicity relative to roseotoxin B (mice [2]) | Mortality (Heliothis zea) [%] | Wt. reductions (Heliothis zea) [%] | Mortality (Spodoptera frugiperda) [%] | Wt. reductions (Spodoptera frugiperda) [%]
CC[C@H](C)[C@@H]1NC(=O)[C@@H]2CCCN2C(=O)[C@@H](CC(C)C)OC(=O)CCNC(=O)[C@H](C)N(C)C(=O)[C@H](C(C)C)N(C)C1=O [Destruxin B] (cyclo([dHica]PI[NMeV][NMeA][βAla])) | 16.9 | 0.34 | about 10 times |  |  |  | 
CCOC(=O)CC(SP(=S)(OC)OC)C(=O)OCC (centres unmarked) [Malathion] |  |  |  | 5.5 | 27 | 30 | 45
CC1(C)C(C=C(Cl)Cl)C1C(=O)OCc1cccc(Oc2ccccc2)c1 (centres unmarked) [Permethrin] |  |  |  | 17 | 81 | 35 | 94
C=CC[C@H]1OC(=O)CCNC(=O)[C@H](C)N(C)C(=O)[C@H](C(C)C)N(C)C(=O)[C@H]([C@@H](C)CC)NC(=O)[C@@H]2CCCN2C1=O [destruxin A] (cyclo([dLac(3-vinyl)]PI[NMeV][NMeA][βAla])) | 1.35 | 0.28 | approximately 100 times |  |  |  | 
